{"source": "patent US7968535B2", "about": "“Use of azapaullones for preventing and treating pancreatic autoimmune disorders” (Develogen Atkiengesellschaft, priority 2005, dated 2011)", "key": {"[1]": {"system": "INS-1E cells", "assay": "DNA-fragmentation ELISA in glucose/palmitate stressed cells", "assay_type": "cell-based, rat", "conditions": "2.5 μM, glucose/palmitate 24 hours", "method": "The effects of the substance on cell viability, cell growth and specific apoptotic events such as caspases activity and DNA-fragmentation was monitored. INS-1E cell apoptosis was induced by treatment of cell cultures with toxic concentrations of glucose and palmitate for 24 hours. The substance of interest was added to the medium 1 hour prior to the addition of the toxic agents.\nDNA-fragmentation is a comparatively late apoptotic event comprising storage of nucleosomal DNA-fragments as mono- and oligo nucleosomes in the cytoplasm. The incubation of INS1-E cells with high concentrations of glucose and palmitate for 24 hours leads to DNA breakdown and the accumulation of nucleosomal DNA fragments in the cytoplasm. The detectable amount of cytosolic nucleosomal DNA fragments was reduced by about 17%, when cells were treated with the apoptosis inducing agents in combination with 10 μM 4-AKP.\n(§1) 10,000 Ins-1E cells were seeded per 96-well (black 96-well tissue culture plates, Falcon #353948) in 100 μl culture medium (RPMI 1640 containing 11 mM glucose, 5% FCS, 10 mM HEPES, 50 μM 2-mercaptoethanol, 1 mM MEM sodium pyruvate, 100 U/ml penicillin, 100 μg/ml streptomycin) and cultivated at 37° C., 5% CO2 in humidified atmosphere for 3 days. Media was changed to 100 μl starvation medium (culture medium with only 5 mM glucose, 1% FCS) and the cells were re-incubated for 1 day. Then media was exchanged to starvation medium containing test substances.\nApoptosis of Ins-1E cells was induced by addition of a combination of BSA coupled palmitate and glucose (pal/gluc) or a combination of cytokines (cyt) 1 hour after starting the treatment with test substances: pal/gluc: 0.3 mM palmitate:BSA (palmitic acid sodium salt:fatty acid free BSA 6:1) and 25 mM glucose. 10×cyt: 0.04 ng/ml IL-1β and 1 ng/ml IFNγ. The cells were further incubated with test substances and apoptotic inducer for 24 hours.\nDNA-fragmentation is a late apoptotic event comprising storage of nucleosomal DNA-fragments as mono- and oligo nucleosomes in the cytoplasm. Their concentration was determined by ELISA (Cell death detection ELISA, Roche, cat. No. 1774425) according to the manufacturers guidelines."}, "[2]": {"system": "INS-1E cells", "assay": "Ins-1E cell proliferation assay (BrdU incorporation)", "assay_type": "cell-based, rat", "conditions": "maximum at 1 μM", "method": "The proliferation rate of Ins-1E cells was determined by monitoring DNA synthesis using a 5-bromo-2′-deoxyuridine (BrdU) incorporation assay. BrdU is a halogenated nucleotide analogue of thymidine that is incorporated into DNA during the S-phase of the cell cycle. Pulse-labeling of DNA with BrdU and subsequent immunohistochemical detection of labeled nuclei was used to study the rate of cell proliferation. The treatment of INS-1E cells with 4-Azakenpaullone for 24 hours increases BrdU incorporation of Ins-1E cells in a concentration dependent manner, reaching a maximum of about 1.4 fold between 5 μM and 10 μM 4-AKP.\nThe proliferation of Ins-1E insulinoma cells was determined by monitoring DNA synthesis as an indirect parameter of cell proliferation. The incorporation of the thymidine analogue 5-bromo-2′-deoxyuridine (BrdU) during replication into cellular DNA was used to label the DNA of mitotically active cells. After its incorporation into DNA, BrdU was detected by immunoassay.\nas §1, with “substances and the cells were further incubated for 24 h. For the last 4 hours BrdU was added to reach a concentration of 10 μM. Cell proliferation ELISA (Cell Proliferation ELISA, BrdU, chemiluminescence, Roche, cat. No. 1669915) was performed according to the manufacturers guidelines.” for “substances.”"}, "[3]": {"system": "primary rat beta cells", "assay": "Replication of primary rat beta cells (Ki67/C-peptide immunofluorescence)", "assay_type": "cell-based", "conditions": "islets treated for 72 hours", "method": "Cells expressing the proliferation marker Ki67 as well as C-peptide were considered to be replicating beta cells. The percentage of replicating beta cells in islets not exposed to compound 10c (Co.) and islet treated for 72 hours with the indicated amounts of compound 10c was determined by immunofluorescence microscopy.\nIsolated rat islets were cultured for 72 hours in the presence of compound 10c before the islets were disaggregated and dispersed on microscope slides. Replicating beta cells were identified by immunohistological staining of dispersed islets with antibodies against C-peptide, a proteolytic fragment of proinsulin, and the cell division marker Ki-67.\nIslets of Langerhans are isolated by standard Liberase digestion method from rat pancreata (Liberase™ Cl enzyme blend BMB Cat. #1814-435, ROCHE).\nFreshly isolated islets are cultured in vitro with or without the addition of the factor of interest for 48 h. Following the culture period the islets are dispersed gently by titration in Ca^2+ and Mg^2+ free PBS. […]\nAn Olympus microscope equipped with an automatic image acquisition device (Olympus) is used for counting of C-peptide positive beta cells. Proliferating C-peptide/Ki-67 double positive beta cells are counted manually. Thereby the fraction of proliferating beta cells can be determined."}}}
{"molecule": "N#Cc1ccc2[nH]c3c(c2c1)CC(=O)Nc1cccnc1-3", "note": "[Compound 10c, 6-Oxo-5,6,7,12-tetrahydropyrido[3′,2′:2,3]azepino[4,5-b]indole-9-carbonitrile]", "values": [{"measurement": "reduction of cytosolic DNA-fragments", "setting": "[1]", "value": 74, "unit": "%"}, {"measurement": "BrdU incorporation relative to untreated controls (maximum)", "setting": "[2]", "value": "about 1.5 fold"}, {"measurement": "replication of primary rat beta cells in culture", "setting": "[3]", "value": "stimulates the replication"}]}
